Measurements as given in patent publication US10814006B2, “Fluorescent prodrugs” (UNIVERSITY OF IOWA RESEARCH FOUNDATION, priority 2015, dated 2020).
Entries after “also recorded” stand apart in the source; their conditions may differ. Where two headings read alike, the source gives them in different places. Blank lines part the entries; values can stand above or below the compound they belong to.

Experiments:
Daudi cells = assay: Proliferation assay, Daudi cells (CellQuantiBlue); format: cell-based; details: 72 hours; for IC50: Daudi cells, QB assay
Experimental: (§1) K562 cells were cultured in fresh K562 media (RPMI-1640, 10% heat-inactivated Fetalclone III, 1× penicillin/streptomycin). Daudi and RPMI-8226 cells were cultured in fresh Daudi/RPMI media (RPMI-1640, 10% heat-inactivated FBS, 1× penicillin/streptomycin). Gamma delta T cells were cultured as described previously. Briefly, cells were expanded from peripheral blood mononuclear cells in fresh T cell media (RPMI-1640, 10% heat-inactivated FBS, 1× HEPES, pyruvate, non-essential amino acids, penicillin/streptomycin, beta-mercaptoethanol) and added to 6-well plates. Cells were stimulated with test compounds for three days at concentrations indicated in the text. Cells were washed twice then cultured for another eleven days after compound removal. Human interleukin 2 (5 ng/mL) was supplemented every three days. Experiments were performed at least three times independently using at least two different blood donors.
(§2) To assess K562 proliferation, 10000 cells/well were added to 96-well plates in 100 μL K562 media in the presence of test compounds. Similarly, experiments with Daudi cells were initiated at 5000 cells/well and RPMI8226 cells initiated at 6000 cells/well. The cell concentrations were determined by prior dose response experiments to maximize proliferation rates. Cells were allowed to proliferate for 72 hours. During the last 2 hours, cells were labeled with 10 μL of CellQuantiBlue reagent and scanned with a Victor plate reader.

RPMI-8226 cells = assay: Proliferation assay, RPMI-8226 cells (CellQuantiBlue); format: cell-based; details: 72 hours; for IC50: RPMI-8226 cells, QB assay
Experimental: as §1, §2

Jurkat cells = assay: Proliferation assay, Jurkat cells (CellQuantiBlue); format: cell-based; details: 72 hours; for IC50: Jurkat cells, QB assay
Experimental: [Worded in the source for another cell line; this cell line is reported under the same test.] as §2

K562 cells [1] = assay: Proliferation assay, K562 cells (CellQuantiBlue); format: cell-based; details: 72 hours; for IC50: K562 cells, QB assay
Experimental: as §1, §2

[2] = tested on: primary human gamma delta T cells (Vγ9Vδ2 T cells); details: cited from earlier work
[3] = pH dependence of fluorescence intensity; format: physicochemical; details: aqueous solutions, pH 6 vs pH 3
Description: The use of the MOCCA prodrugs as probes with which to determine rates of biological deprotection (FIG. 4) was examined. All three compounds were readily detected by spectrophotometry with excitation maxima of 360 nm and emission maxima of 410 nm in aqueous solutions. Importantly, the fluorescence intensity of the free MOCCA group was strongly dependent upon pH of the solvent (FIG. 4A), correlating with the expected protonation of the carboxylic acid. At pH 6 the intensity of the free MOCCA group was less than 10% of its intensity at pH 3. At the same time, the fluorescence intensity of the MOCCA prodrugs was not pH dependent. Taken together, the MOCCA prodrugs would be expected to rapidly lose fluorescence intensity during metabolism at neutral pH, as the free MOCCA group is released from the prodrug and remains in the deprotonated form.

[4] = tested on: primary human gamma delta T cells (Vγ9Vδ2 T cells); assay: Gamma delta T cell expansion from PBMCs; format: cell-based; details: for EC50: 72 hours treatment; for gamma delta T cell agonist activity: PBMCs, CD3 and gamma delta TCR surface staining
Experimental: as §1
Total gamma delta TCR was labeled using FITC-anti-human Pan gamma delta TCR antibody and CD3 was labeled using PE-conjugated anti-human CD3 as described.
The MOCCA prodrugs were also evaluated in a functional assay of their ability to stimulate proliferation of primary human gamma delta T cells. Dose response experiments were performed with the experimental compounds—MOCCA-Me-C-HMBP and MOCCA-POM-C-HMBP. POM-Me-C-HMBP, POM2-C-HMBP, Me-C-HMBP, C-HMBP or HMBPP were used as positive controls. Unstimulated cells were used as a negative control. Cells were treated for 72 hours with test compounds, washed, then expanded for 11 additional days prior to quantification to assess proliferation.

[5] = Plasma metabolism by thin layer chromatography; format: in vitro ADME; details: human plasma
Experimental: Compounds were exposed to cells, plasma, media, or PBS as indicated in the text in 100 μL volumes. Compounds were extracted from all biological mixtures using 200 μL of organic solvent containing 95% dichloromethane, 5% ethanol, and 0.25% glacial acetic acid. Extracts were separated by normal phase […] using 95% dichloromethane, 5% ethanol, and 0.25% glacial acetic acid as the mobile phase. Compounds were visualized under UV light.
(§3) The prodrugs and the MOCCA protecting group were stable in PBS (FIG. 5A). […] The half-life was determined to be 7 minutes in this assay. […] In order to confirm that the loss of fluorescence of MOCCA-Me-C-HMBP was indeed due to hydrolysis of the MOCCA-phosphonate ester, the end products were extracted and analyzed by thin layer chromatography. MOCCA-Me-C-HMBP was fully hydrolyzed to yield the free MOCCA group in the presence of human plasma within 40 minutes (FIG. 5D). Loss of the prodrug occurred at the same time as the appearance of the MOCCA free acid.

[6] = Plasma metabolism by loss of fluorescence (spectrophotometry); format: in vitro ADME, human
Experimental: (§4) Compounds were exposed to PBS, K562 cells in PBS, or 50% pooled human plasma in PBS. K562 cells were used at a concentration of 1 million per mL. The fluorescence was detected using a Victor X5 plate reader with excitation at 355 nm and emissions at 405. Compounds were mixed with each biological matrix to a final concentration of 10 μM on ice. A baseline reading was measured. Compounds were incubated for one hour at 37° C. and subsequent readings were taken every 15 minutes.
This assay was then adapted to a 384-well-plate format for use in a plate reader equipped with a 355/40 nm excitation filter and a 405/10 nm emission filter. As expected, the fluorescence intensity of MOCCA-Me-C-HMBP in PBS was much higher than that of the free MOCCA group in PBS (FIG. 4B). Additionally, the fluorescence of the free MOCCA group was further reduced when incubated in human plasma (FIG. 4C). […] Therefore, the esterase-mediated hydrolysis of MOCCA-Me-C-HMBP could be readily assessed by quantification of the two-step (release followed by quenching) loss of fluorescence following exposure to various biological matrices.
as §3

K562 cells [7] = assay: Quantification of cellular uptake in K562 cells; format: cell-based; details: K562 cells in PBS, 10 μM
Experimental: as §4
The compounds were then used to examine rates of internalization into K562 cells. […] That is, within hours, effectively all of the drug can pass through the cells.

[8] = Reference: Hsiao et al., read-out: EC50 for T cell expansion
[9] = dose response curves, read-out: EC50, gamma delta T cell proliferation

Structure (SMILES): C/C(=C\CCP(=O)(O)O)CO [C-HMBP]
IC50 (Daudi cells): > 100 µM
IC50 (RPMI-8226 cells): > 100 µM
IC50 (Jurkat cells): > 100 µM
IC50 (K562 cells [1]): > 100 µM
EC50 [2, 8]: 4 µM

IC50 (Daudi cells; Homo sapiens): > 100 µM
fluorescence intensity at pH 6 relative to intensity at pH 3 [3]: less than 10%
IC50 (RPMI-8226 cells; Homo sapiens): > 100 µM
IC50 (Jurkat cells; Homo sapiens): > 100 µM
IC50 (K562 cells [1]; Homo sapiens): > 100 µM
Structure (SMILES): COc1ccc2cc(C(=O)O)c(=O)oc2c1 [MOCCA (1), 7-Methoxy-2-oxo-2H-chromene-3-carboxylic acid]
cellular toxicity, Daudi (Daudi cells; concentrations up to 100 μM): no cellular toxicity
cellular toxicity, RPMI-8226 (RPMI-8226 cells; concentrations up to 100 μM): no cellular toxicity
cellular toxicity, Jurkat (Jurkat cells; concentrations up to 100 μM): no cellular toxicity
cellular toxicity, K562 (K562 cells [1]; concentrations up to 100 μM): no cellular toxicity

Structure (SMILES): COc1ccc2cc(C(=O)OCOP(=O)(CC/C=C(\C)CO)OC)c(=O)oc2c1 (stereo not drawn) [MOCCA-Me—C-HMBP (5)]
EC50 ([4]; Homo sapiens, T-cell, 11 additional days expansion, Reference: none, read-out: EC50 for T cell expansion): 0.018 µM
EC50 ([4]; Homo sapiens, T-cell, dose response curves, read-out: EC50, gamma delta T cell proliferation): 0.018 µM
gamma delta T cell agonist activity [4]: functioned as a gamma delta T cell agonist; also recorded: potent gamma delta T cell agonist
increase in activity of the MOCCA protected compound over Me-C-HMBP ([4]; ratio of EC50 values): 1300 fold
IC50 (Daudi cells; Homo sapiens): > 100 µM
IC50 (RPMI-8226 cells; Homo sapiens): 64 µM
IC50 (Jurkat cells; Homo sapiens): > 100 µM
time to full hydrolysis to the free MOCCA group [5]: ≤ 40 min
half-life ([5]; read-out: half-life of enzymatic release): 7.8 min
order of decay kinetics in plasma ([6]; 50% human plasma in PBS, spectrophotometry): 2nd order kinetics
half-life at 10 μM ([6]; 50% pooled human plasma in PBS, 50% human plasma in PBS, spectrophotometry): 7 min
relative rate of plasma metabolism ([6]; human plasma): metabolized more rapidly relative to the bulkier MOCCA-POM-C-HMBP
cellular uptake / cellular metabolism in K562 cells (K562 cells [7]): faster than that of MOCCA-POM-C-HMBP
IC50 (K562 cells [1]; Homo sapiens): > 100 µM

IC50 (Daudi cells): 56 µM
IC50 (RPMI-8226 cells): 43 µM
IC50 (Jurkat cells): 53 µM
IC50 (K562 cells [1]): > 100 µM
Structure (SMILES): COc1ccc2cc(C(=O)OCOP(=O)(CC/C=C(\C)CO)OCOC(=O)C(C)(C)C)c(=O)oc2c1 (stereo not drawn) [MOCCA-POM (9)]
gamma delta T cell agonist activity [4]: functioned as a gamma delta T cell agonist
EC50 [4, 9]: 0.0039 µM

Structure (SMILES): C1CN2CCN1CC2.COP(=O)(O)CC/C=C(\C)CO [Me—C-HMBP (4)]
EC50 [4, 9]: 23 µM
IC50 (Daudi cells): > 100 µM
IC50 (RPMI-8226 cells): > 100 µM
IC50 (Jurkat cells): > 100 µM
IC50 (K562 cells [1]): > 100 µM

IC50 (Daudi cells): 58 µM
IC50 (RPMI-8226 cells): 44 µM
IC50 (Jurkat cells): > 100 µM
IC50 (K562 cells [1]): > 100 µM
Structure (SMILES): C/C(=C\CCP(=O)(OCOC(=O)C(C)(C)C)OCOC(=O)C(C)(C)C)CO [POM2-C-HMBP (7)]
EC50 ([2]; published value, unit inferred, read-out: published EC50 value, gamma delta T cell proliferation): 0.0054 µM

IC50 (Daudi cells): > 100 µM
IC50 (RPMI-8226 cells): > 100 µM
IC50 (Jurkat cells): > 100 µM
IC50 (K562 cells [1]): > 100 µM
Structure (SMILES): COP(=O)(CC/C=C(\C)CO)OCOC(=O)C(C)(C)C (stereo not drawn) [POM-Me—C-HMBP]
gamma delta T cell agonist activity [4]: not statistically different from that of POM-Me-C-HMBP
EC50 [2, 8]: 0.52 µM
EC50 ([2]; published value, Hsiao et al. 2014, read-out: published EC50, gamma delta T cell proliferation): 0.5 µM
